Experimental data as given in patent publication US20100074083A1, “RESIN COMPOSITION AND MOLDED PRODUCT OBTAINED BY MOLDING THE RESIN COMPOSITION” (MITSUI CHEMICALS, INC., priority 2006, published 2010).

Key:
[1] = Hexane solubility; assay type: physicochemical; settings: stirred 1 hour, naked eye; for Hexane solubility 43 g: 43 g sample in 100 g n-hexane at 23° C.; for Hexane solubility 100 g: 100 g sample in 100 g n-hexane at 23° C.
Protocol: The samples in an amount as shown in Table 1 were added into 100 g of n-hexane at 23° C., and the mixture was stirred for 1 hour, and thereafter the state was evaluated with naked eyes on the basis of following criteria.
(Criteria for Evaluation)
S; Completely dissolved, C; Dissolved, but insoluble materials remained, and I.S.; Substantially not dissolved.

[2] = Weight reducing temperature at heating (heat resistance, TG-DTA); assay type: physicochemical; settings: heated at 5° C./minutes under nitrogen
Protocol: The sample was heated at 5° C./minutes under nitrogen, and measured by means of TG8120 type TG-DTA device manufactured by Rigaku Corporation.

Q: For CCCCCCCCCCCCNc1nc(N(CCCC)C2CC(C)(C)NC(C)(C)C2)nc(N(CCCC)C2CC(C)(C)NC(C)(C)C2)n1 [Exemplary compound 9, N,N′-dibutyl-N″-dodecyl-N,N′-bis(2,2,6,6-tetramethyl-4-piperidyl)-1,3,5-triazine-2,4,6-triamine], which “Hexane solubility 43 g” value [1] is on record?
A: S

Q: For CCCCCCCCCCCCN(c1nc(N(CCCCCCCCCCCC)C2CC(C)(C)N(C)C(C)(C)C2)nc(N(CCCCCCCCCCCC)C2CC(C)(C)N(C)C(C)(C)C2)n1)C1CC(C)(C)N(C)C(C)(C)C1 [Exemplary compound 8, N,N′,N″-tridodecyl-N,N′,N″-tris-(1,2,2,6,6-pentamethyl-4-piperidinyl)-[1,3,5]-triazine-2,4,6-triamine], which “Hexane solubility 43 g” value [1] is on record?
A: S

Q: And the “Hexane solubility 100 g” value [1]?
A: S

Q: And the “Heat resistance 1% by weight reducing temperature” value [2]?
A: 330.1 °C

Q: And the “Heat resistance 5% by weight reducing temperature” value [2]?
A: 378.2 °C

Q: With CCCCCCCCCCCCN(c1nc(N(CCCCCCCCCCCC)C2CC(C)(C)NC(C)(C)C2)nc(N(CCCCCCCCCCCC)C2CC(C)(C)NC(C)(C)C2)n1)C1CC(C)(C)NC(C)(C)C1 [Exemplary compound 3, N,N′,N″-trilauryl-N,N′,N″-tris(2,2,6,6-tetramethyl-4-piperidin-4-yl)-[1,3,5]-triazine-2,4,6-triamine] as the molecule, how does the “Hexane solubility 43 g” value [1] read?
A: S

Q: And the “Hexane solubility 100 g” value [1]?
A: S

Q: And the “Heat resistance 1% by weight reducing temperature” value [2]?
A: 246.2 °C

Q: What about the “Heat resistance 5% by weight reducing temperature” value [2] of the same molecule?
A: 377.1 °C

Q: With CCCCN(CCCC)c1nc(N(CCCC)C2CC(C)(C)NC(C)(C)C2)nc(N(CCCC)C2CC(C)(C)NC(C)(C)C2)n1 [Exemplary compound 11, N,N′,N″,N″-tetrabutyl-N,N′-bis(2,2,6,6-tetramethyl-4-piperidyl)-1,3,5-triazine-2,4,6-triamine] as the molecule, how does the “Hexane solubility 43 g” value [1] read?
A: S

Q: And the “Hexane solubility 100 g” value [1]?
A: S

Q: For CCCCCCCCCCCCN(c1nc(NCCCC)nc(N(CCCCCCCCCCCC)C2CC(C)(C)NC(C)(C)C2)n1)C1CC(C)(C)NC(C)(C)C1 [Exemplary compound 14, N-butyl-N′,N″-didodecyl-N′,N″-bis(2,2,6,6-tetramethyl-4-piperidyl)-1,3,5-triazine-2,4,6-triamine], which “Hexane solubility 43 g” value [1] is on record?
A: S

Q: What about the “Hexane solubility 100 g” value [1] of the same molecule?
A: S

Q: With CCCCCCCCCCCCN(CCCNc1nc(N(CCCC)C2CC(C)(C)N(C)C(C)(C)C2)nc(N(CCCC)C2CC(C)(C)N(C)C(C)(C)C2)n1)CCCNc1nc(N(CCCC)C2CC(C)(C)N(C)C(C)(C)C2)nc(N(CCCC)C2CC(C)(C)N(C)C(C)(C)C2)n1 [Exemplary compound 4] as the molecule, how does the “Hexane solubility 43 g” value [1] read?
A: S

Q: And the “Hexane solubility 100 g” value [1]?
A: S

Q: And the “Heat resistance 1% by weight reducing temperature” value [2]?
A: 292.7 °C

Q: And the “Heat resistance 5% by weight reducing temperature” value [2]?
A: 357.2 °C

Q: Which “Hexane solubility 25 g” value ([1]; 25 g sample in 100 g n-hexane at 23° C.) does the source give for CC1(C)CC(OC(=O)CCCCCCCCC(=O)OC2CC(C)(C)NC(C)(C)C2)CC(C)(C)N1 [TINUVIN 770] here?
A: I.S.

Q: And the “Heat resistance 1% by weight reducing temperature” value [2]?
A: 207.4 °C

Q: What about the “Heat resistance 5% by weight reducing temperature” value [2] of the same molecule?
A: 248.4 °C

Q: What does the source list for CCCCCCCCCCCCNc1nc(N(CCCCCCCCCCCC)C2CC(C)(C)NC(C)(C)C2)nc(N(CCCCCCCCCCCC)C2CC(C)(C)NC(C)(C)C2)n1 [Exemplary compound 2, N,N′,N″-trilauryl-N,N′-bis-(2,2,6,6-tetramethylpiperidin-4-yl)-[1,3,5]-triazine-2,4,6-triamine]?
A: Hexane solubility 43 g [1]: S; Hexane solubility 100 g [1]: S; Heat resistance 1% by weight reducing temperature [2]: 292.9 °C; Heat resistance 5% by weight reducing temperature [2]: 366.7 °C

Q: For CCCCCCCCCCCCNc1nc(N(CCCCCCCC)C2CC(C)(C)N(C)C(C)(C)C2)nc(N(CCCCCCCC)C2CC(C)(C)N(C)C(C)(C)C2)n1 [Exemplary compound 13, N-dodecyl-N′,N″-bis(1,2,2,6,6-pentamethyl-4-piperidyl)-N′,N″-dioctyl-1,3,5-triazine-2,4,6-triamine], which “Hexane solubility 43 g” value [1] is on record?
A: S

Q: What about the “Hexane solubility 100 g” value [1] of the same molecule?
A: S

Q: Which “Hexane solubility 43 g” value [1] does the source give for CCCCCCCCCCCCNC1CC(C)(C)NC(C)(C)C1 [Exemplary compound 5, N-dodecyl-2,2,6,6-tetramethyl piperidine-4-amine] here?
A: S

Q: And the “Hexane solubility 100 g” value [1]?
A: S

Q: What about the “Heat resistance 1% by weight reducing temperature” value [2] of the same molecule?
A: 103.3 °C

Q: And the “Heat resistance 5% by weight reducing temperature” value [2]?
A: 188.1 °C

Q: With CCCCNc1nc(N(CCCC)C2CC(C)(C)NC(C)(C)C2)nc(N(CCCC)C2CC(C)(C)NC(C)(C)C2)n1 [Exemplary compound 10, N,N′,N″-tributyl-N,N′-bis(2,2,6,6-tetramethyl-4-piperidyl)-1,3,5-triazine-2,4,6-triamine] as the molecule, how does the “Hexane solubility 43 g” value [1] read?
A: S

Q: Which results are given for CCCCCCCCCCCCNc1nc(N(CCCC)C2CC(C)(C)N(C)C(C)(C)C2)nc(N(CCCC)C2CC(C)(C)N(C)C(C)(C)C2)n1 [Exemplary compound 1, N,N′-dibutyl-,N″-lauryl-N,N′-bis-(1,2,2,6,6-pentamethyl-4-piperidin-4-yl)-[1,3,5]-triazine-2,4,6-triamine]?
A: Hexane solubility 43 g [1]: S; Hexane solubility 100 g [1]: S; Heat resistance 1% by weight reducing temperature [2]: 271.6 °C; Heat resistance 5% by weight reducing temperature [2]: 333.4 °C

Q: What does the source list for CCCCCCCCN(c1nc(N(CCCCCCCC)C2CC(C)(C)N(C)C(C)(C)C2)nc(N(CCCCCCCC)C2CC(C)(C)N(C)C(C)(C)C2)n1)C1CC(C)(C)N(C)C(C)(C)C1 [Exemplary compound 7, N,N′,N″-trioctyl-N,N′,N″-tris-(1,2,2,6,6-pentamethyl-4-piperidinyl)-[1,3,5]-triazine-2,4,6-triamine]?
A: Hexane solubility 43 g [1]: S; Hexane solubility 100 g [1]: S; Heat resistance 1% by weight reducing temperature [2]: 291.5 °C; Heat resistance 5% by weight reducing temperature [2]: 340.1 °C

Q: What does the source list for CCCCN(c1nc(N(CCCC)C2CC(C)(C)N(C)C(C)(C)C2)nc(N(CCCC)C2CC(C)(C)N(C)C(C)(C)C2)n1)C1CC(C)(C)N(C)C(C)(C)C1 [Exemplary compound 6, N,N′,N″-tributyl-N,N′,N″-tris-(1,2,2,6,6-pentamethyl-4-piperidinyl)-[1,3,5]-triazine-2,4,6-triamine]?
A: Hexane solubility 43 g [1]: S; Hexane solubility 100 g [1]: S; Heat resistance 1% by weight reducing temperature [2]: 250.7 °C; Heat resistance 5% by weight reducing temperature [2]: 320.2 °C

Q: Which “Hexane solubility 43 g” value [1] does the source give for CCCCCCCCN(CCCCCCCC)c1nc(N(CCCC)C2CC(C)(C)NC(C)(C)C2)nc(N(CCCC)C2CC(C)(C)NC(C)(C)C2)n1 [Exemplary compound 12, N,N′-dibutyl-N,N′-bis(2,2,6,6-tetramethyl-4-piperidyl)-N″, N″-dioctyl-1,3,5-triazine-2,4,6-triamine] here?
A: S

Q: What about the “Hexane solubility 100 g” value [1] of the same molecule?
A: S
